Drawing on patent publication US20220380319A1 (Bial - R&D Investments, S.A., priority 2019, published 2022), this text covers solubility and IC50 for 32 compounds.

As a reminder, the solubility is the concentration that dissolves in the medium under given conditions. High values mean a readily soluble substance, low ones a poorly soluble substance. By IC50 is commonly meant the midpoint of a concentration-inhibition curve. A lower IC50 goes with greater potency in that assay.

A short description of data set [1]: Compound solubility in water.
A further data set concerns the target T1, acid ceramidase (Homo sapiens, UniProt Q13510).
T1 construct: Cell lysates overexpressing acid ceramidase were used as the enzyme source; expressed in transfected cells
T1 sequence (Q13510 22-395): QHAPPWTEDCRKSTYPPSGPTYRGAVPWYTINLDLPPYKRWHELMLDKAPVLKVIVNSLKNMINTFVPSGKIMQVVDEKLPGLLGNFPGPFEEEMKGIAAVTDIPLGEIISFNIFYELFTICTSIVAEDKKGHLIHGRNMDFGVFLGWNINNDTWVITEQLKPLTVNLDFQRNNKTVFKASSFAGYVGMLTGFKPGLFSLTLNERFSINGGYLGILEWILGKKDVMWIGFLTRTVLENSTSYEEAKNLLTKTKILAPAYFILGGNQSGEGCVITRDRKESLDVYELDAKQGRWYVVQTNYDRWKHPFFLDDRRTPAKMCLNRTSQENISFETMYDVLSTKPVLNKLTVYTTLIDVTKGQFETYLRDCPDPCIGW
The experiment in a line: Acid ceramidase inhibition, biochemical fluorescent assay with cell lysates overexpressing acid ceramidase, substrate Rbm14-12. To be noted: substrate Rbm14-12 6.3 μM. On the procedure: The ability of exemplary compounds to inhibit acid ceramidase was measured.
Cell lysates overexpressing acid ceramidase were used as the enzyme source for compound potency determination in a biochemical fluorescent assay. Briefly, compounds were preincubated with 10 μg protein of cell lysates in a dose-response manner for 1 hr at RT in the assay buffer containing 25 mM NaAC and 100 mM NaCl, pH 4.5. The reaction was initiated by the addition of substrate Rbm14-12 at a final concentration of 6.3 μM. The reaction was run at RT for 1 hr before it was stopped by the addition of the stopping buffer containing 20% methanol (v/v), 1 mg/ml NaIO4, 0.1 M glycine, pH 10.6. The samples were incubated with the stopping buffer at RT for 1 hr to allow the fluorescent product to be formed. Finally, the plate was read with SpectraMax i3 plate reader (Molecular Devices) at ex360 nm and em446 nm. Data were collected and used to determine the IC50 values of compounds by curve fitting to the four-parameter inhibition equation.

Setting [2] is: pH 4.5, 1 hr preincubation at RT.

≈ marks a conversion by molar mass, not a printed value.

The compound `CN1CCN(C2CN(c3cccc4c3ncn4C(=O)NCCC3CCC(F)(F)C3)C2)CC1` (stereo not shown) [Example 318, N-(2-(3,3-Difluorocyclopentyl)ethyl)-4-(3-(4-methylpiperazin-1-yl)azetidin-1-yl)-1H-benzo[d]imidazole-1-carboxamide] registered a solubility in data set [1] of 40 µg/mL (≈ 89.6 µM). The compound also registered an IC50 on acid ceramidase (pH 4.5) of 200 to 1000 nM.

`COc1ccc2ncn(C(=O)NCCc3ccccc3)c2c1` [Example 25b, 6-methoxy-N-phenethyl-1H-benzo[d]imidazole-1-carboxamide] came in with a solubility in data set [1] of 15 µg/mL (≈ 50.8 µM). This compound also registered an IC50 against acid ceramidase (setting [2]) of under 200 nM.

`CCC(C)NC(=O)n1c(OC)nc2ccc(-c3cncnc3)cc21` (stereo not shown) [Example 109a, N-(sec-Butyl)-2-methoxy-6-(pyrimidin-5-yl)-1H-benzo[d]imidazole-1-carboxamide] yielded a solubility in data set [1] of 28.7 µg/mL (≈ 88.2 µM). The IC50 at acid ceramidase (setting [2]) was over 1000 nM.

Consider `CC(C)CCNC(=O)n1cnc2c(N3[C@@H]4CC[C@H]3COC4)cccc21` [Example 220, 4-((1R,5S)-3-Oxa-8-azabicyclo[3.2.1]octan-8-yl)-N-isopentyl-1H-benzo[d]imidazole-1-carboxamide], for which the concentration in solution in data set [1] (solubility) was 4 µg/mL (≈ 11.7 µM). Also, the IC50 on acid ceramidase (pH 4.5) lay within 200 to 1000 nM.

With `CCC(C)CNC(=O)n1c(OC)nc2c(OC)cccc21` (stereo not shown) [Example 117, 2,4-Dimethoxy-N-(2-methylbutyl)-1H-benzo[d]imidazole-1-carboxamide], the solubility in data set [1] stood at 23.4 µg/mL (≈ 80.3 µM). Besides, on acid ceramidase (setting [2]), the IC50 is 200 to 1000 nM.

As to `CCCN1CCN(c2cccc3c2ncn3C(=O)NCCC(C)C)CC1` [Example 202, N-iso-Pentyl-4-(4-propylpiperazin-1-yl)-1H-benzo[d]imidazole-1-carboxamide], the solubility in data set [1] is 15 µg/mL (≈ 42 µM). On acid ceramidase (pH 4.5), this compound came in with an IC50 of 200 to 1000 nM.

`CN1CCN(C2CN(c3cccc4c3ncn4C(=O)NCC#CC(C)(C)C)C2)CC1` [Example 360, N-(4,4-Dimethylpent-2-yn-1-yl)-4-(3-(4-methylpiperazin-1-yl)azetidin-1-yl)-1H benzo[d]imidazole-1-carboxamide] displayed a solubility in data set [1] of 27 µg/mL (≈ 66.1 µM). The concentration for half-maximal inhibition (IC50) on acid ceramidase (setting [2]) was under 200 nM.

As for `O=C(NCCCc1ccccc1)n1cnc2ncccc21` [Example 59, N-(3-Phenylpropyl)-1H-imidazo[4,5-b]pyridine-1-carboxamide], the solubility in data set [1] stood at 24.6 µg/mL (≈ 87.8 µM). Besides, the IC50 at acid ceramidase (setting [2]) is under 200 nM.

In the case of `O=C(NCCN1CCOCC1)n1cnc2ccccc21` [Example 41, N-(2-Morpholinoethyl)-1H-benzo[d]imidazole-1-carboxamide], in data set [1], the solubility came out at 32 µg/mL (≈ 117 µM). This compound also gave an IC50 against acid ceramidase (setting [2]) of over 1000 nM.

`O=C(NCCc1ccccc1)n1cnc2ccc(-c3cccnc3)cc21` [Example 10b, N-phenethyl-6-(pyridin-3-yl)-1H-benzo[d]imidazole-1-carboxamide] displayed a solubility in data set [1] of 0.6 µg/mL (≈ 1.75 µM). The IC50 against acid ceramidase (setting [2]) is under 200 nM.

With `CC(C)CCNC(=O)n1cnc2c(N3C[C@H](C)O[C@@H](C)C3)cccc21` (stereo in doubt) [Example 168, 4-((2S,6S)-2,6-Dimethylmorpholino)-N-iso-pentyl-1H-benzo[d]imidazole-1-carboxamide], the concentration in solution in data set [1] (solubility) came to 11 µg/mL (≈ 31.9 µM). The compound also came in with a half-maximal inhibitory concentration (IC50) against acid ceramidase (pH 4.5) of 200 to 1000 nM.

In turn, `COc1nc2ccc(N3CCOCC3)cc2n1C(=O)NCCCCn1ccc(C(C)(C)C)n1` [Example 188b, N-(4-(3-(tert-butyl)-1H-pyrazol-1-yl)butyl)-2-methoxy-6-morpholino-1H-benzo[d]imidazole-1-carboxamide] displayed a solubility in data set [1] of 26 µg/mL (≈ 57.2 µM). The compound further registered an IC50 on acid ceramidase (pH 4.5) of 200 to 1000 nM.

`CN1CC2(CCN(c3cccc4c3ncn4C(=O)NCCOc3ccccc3)CC2)C1` [Example 351, 4-(2-Methyl-2,7-diazaspiro[3.5]nonan-7-yl)-N-(2-phenoxyethyl)-1H-benzo[d]imidazole-1-carboxamide]: in data set [1], the solubility came to 33 µg/mL (≈ 78.7 µM). The compound further came in with an IC50 at acid ceramidase (setting [2]) of under 200 nM.

`CN1CCN(c2cccc3c2ncn3C(=O)NCCc2ccccc2)CC1` [Example 324, 4-(4-Methylpiperazin-1-yl)-N-phenethyl-1H-benzo[d]imidazole-1-carboxamide] showed a solubility in data set [1] of 11 µg/mL (≈ 30.3 µM). The IC50 against acid ceramidase (pH 4.5) lay within 200 to 1000 nM.

`CN1C2CC1CN(c1cccc3c1ncn3C(=O)NCCCc1ccccc1)C2` [Example 243, 4-(6-Methyl-3,6-diazabicyclo[3.1.1]heptan-3-yl)-N-(3-phenylpropyl)-1H-benzo[d]imidazole-1-carboxamide] had a solubility in data set [1] of 28 µg/mL (≈ 71.9 µM). Moreover, the IC50 at acid ceramidase (pH 4.5) is under 200 nM.

`CCCCNC(=O)n1cnc2cc(N3CCC(N4CCN(C)CC4)CC3)ccc21` [Example 102b, N-butyl-5-(4-(4-methylpiperazin-1-yl)piperidin-1-yl)-1H-benzo[d]imidazole-1-carboxamide] showed a solubility in data set [1] of 36.1 µg/mL (≈ 90.6 µM). The same compound came in with an IC50 against acid ceramidase (setting [2]) of 200 to 1000 nM.

With `CN1CCN(c2ccc3ncn(C(=O)NCCc4ccccc4)c3c2)CC1` [Example 15b, 6-(4-Methylpiperazin-1-yl)-N-phenethyl-1H-benzo[d]imidazole-1-carboxamide], the solubility in data set [1] stood at 22.9 µg/mL (≈ 63 µM). Moreover, the IC50 against acid ceramidase (setting [2]) is under 200 nM.

In data set [1], `CC(C)CCNC(=O)n1cnc2c(N3CCN4CCCC4C3)cccc21` (stereo not shown) [Example 158, 4-(Hexahydropyrrolo[1,2-a]pyrazin-2(1H)-yl)-N-iso-pentyl-1H-benzo[d]imidazole-1-carboxamide] came in with a solubility of 17 µg/mL (≈ 47.8 µM). The compound also displayed an IC50 against acid ceramidase (setting [2]) of 200 to 1000 nM.

In data set [1], `CC(C)CNC(=O)n1cnc2c(C(F)(F)F)c(-c3cncnc3)ccc21` [Example 76, N-iso-Butyl-5-(pyrimidin-5-yl)-4-(trifluoromethyl)-1H-benzo[d]imidazole-1-carboxamide] yielded a solubility of 10 µg/mL (≈ 27.5 µM). In addition, on acid ceramidase (setting [2]), the IC50 was under 200 nM.

Turning to `CN1CCN(c2cccc3c2ncn3C(=O)NCC#CCC2CC2)CC1` [Example 284], the concentration in solution in data set [1] (solubility) was 30 µg/mL (≈ 85.4 µM). The IC50 against acid ceramidase (pH 4.5) is under 200 nM.

For `COc1nc2c(N3CCOCC3)cc(F)cc2n1C(=O)NCCC(C)C` [Example 212, 6-Fluoro-N-iso-pentyl-2-methoxy-4-morpholino-1H-benzo[d]imidazole-1-carboxamide], in data set [1], the solubility was 8 µg/mL (≈ 22 µM). Also, the IC50 at acid ceramidase (pH 4.5) lay in the range of 200 to 1000 nM.

In turn, `CC(C)C#CCNC(=O)n1cnc2c(N3CC4(CN(C)C4)C3)cccc21` [Example 358, 4-(6-Methyl-2,6-diazaspiro[3.3]heptan-2-yl)-N-(4-methylpent-2-yn-1-yl)-1H-benzo[d]imidazole-1-carboxamide] gave a solubility in data set [1] of 33 µg/mL (≈ 93.9 µM). At acid ceramidase (setting [2]), this compound registered an IC50 of 200 to 1000 nM.

In the case of `CC(C)CCNC(=O)n1cnc2c(N3CC(C)(C#N)C3)cccc21` [Example 165, 4-(3-Cyano-3-methylazetidin-1-yl)-N-isopentyl-1H-benzo[d]imidazole-1-carboxamide], the concentration in solution in data set [1] (solubility) was 1 µg/mL (≈ 3.07 µM). Further, at acid ceramidase (pH 4.5), the IC50 fell in the range of 200 to 1000 nM.

In data set [1], `O=C(NCCc1ccccc1)n1cnc2cccnc21` [Example 19b, N-phenethyl-3H-imidazo[4,5-b]pyridine-3-carboxamide] yielded a solubility of 24.5 µg/mL (≈ 92 µM). This compound also came in with an IC50 against acid ceramidase (setting [2]) of under 200 nM.

As to `CN1CC2CCC(C1)N2c1cccc2c1ncn2C(=O)NCCCc1ccccc1` [Example 241, 4-(3-Methyl-3,8-diazabicyclo[3.2.1]octan-8-yl)-N-(3-phenylpropyl)-1H-benzo[d]imidazole-1-carboxamide], in data set [1], the concentration in solution (solubility) came to 25 µg/mL (≈ 62 µM). This compound had an IC50 at acid ceramidase (pH 4.5) of under 200 nM.

Turning to `CN1CCN(c2cccc3c2ncn3C(=O)NCCCC2(C(F)(F)F)CC2)CC1` [Example 254, 4-(4-Methylpiperazin-1-yl)-N-(3-(1-(trifluoromethyl)cyclopropyl)propyl)-1H-benzo[d]imidazole-1-carboxamide], in data set [1], the solubility stood at 20 µg/mL (≈ 48.8 µM). On acid ceramidase (pH 4.5), the IC50 is under 200 nM.

As for `CCOc1nc2cccnc2n1C(=O)NCCC(C)C` [Example 113, 2-Ethoxy-N-iso-pentyl-3H-imidazo[4,5-b]pyridine-3-carboxamide], the IC50 on acid ceramidase (setting [2]) was under 200 nM.

With `COc1nc2ncccc2n1C(=O)NCCCOc1ccccc1` [Example 129, 2-Methoxy-N-(3-phenoxypropyl)-1H-imidazo[4,5-h]pyridine-1-carboxamide], the IC50 on acid ceramidase (setting [2]) was under 200 nM.

For the compound `Cc1nc2ccccc2n1C(=O)NCCc1ccccc1` [Example 2, 2-Methyl-N-phenethyl-1H-benzo[d]imidazole-1-carboxamide], on acid ceramidase (setting [2]), the 50% inhibitory concentration (IC50) was under 200 nM.

In the case of `CC(C)CCNC(=O)n1cnc2c(N3CCN(C)CC3)cc(Cl)cc21` [Example 112, 6-Chloro-N-iso-pentyl-4-(4-methylpiperazin-1-yl)-1H-benzo[d]imidazole-1-carboxamide], the solubility in data set [1] came to 27.5 µg/mL (≈ 75.6 µM).

For the compound `COCCNC(=O)n1c(OC)nc2ncccc21` [Example 95, 2-Methoxy-N-(2-methoxyethyl)-1H-imidazo[4,5-b]pyridine-1-carboxamide], the IC50 on acid ceramidase (setting [2]) was in the range of 200 to 1000 nM.

As for `Cn1c(=O)n(C(=O)NCCCCn2ccc(C(C)(C)C)n2)c2ncccc21` [Example 135b, N-(4-(3-(tert-butyl)-1H-pyrazol-1-yl)butyl)-1-methyl-2-oxo-1,2-dihydro-3H-imidazo[4,5-b]pyridine-3-carboxamide], the concentration in solution in data set [1] (solubility) came to 23 µg/mL (≈ 62.1 µM).
